Experimental data taken from patent US7338950B2, “Amide compounds as ion channel ligands and uses thereof” (Renovis, Inc., priority 2003, dated 2008).

System: VR1 receptor (293 cells expressing capsaicin-insensitive VR1 receptor variants)
Experiment: High throughput screening of VR1 antagonists using a calcium imaging assay (Fura2, pH 5.1 stimulus);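 further: Fura2 ratiometric fluorescence read every 4 s over 3 min, response taken as peak ratio minus baseline before pre-treatment, compound pre-treatment preceding acid challenge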
Conditions: 1 uM compound; inhibition of calcium ion influx
Text: A dual wavelength ratiometric dye, Fura2, was used as an indicator of relative levels of calcium ions in a 96 well format using a bench top scanning fluorometer with integrated fluidics and temperature control (Flex Station, Molecular Devices).
A dual wavelength ratiometric dye, Fura2, was used as an indicator of relative levels of [Ca2+] in a 96 well format using a bench top scanning fluorometer with integrated fluidics and temperature control (Flex Station, Molecular Devices).
293 cells were grown on PDL coated 96-well black-walled plates, in the presence of a DMEM medium containing 5% Penstrep, 5% Glutamax, 200 ug/mL Hygromycin, 5 μg/mL Blasticide and 10% heat inactivated FBS. Prior to assay, the cells were loaded with 5 μg/mL Fura2 in normal saline solution at 37° C. for 40 minutes. Cells were then washed with normal saline to remove the dye.
The assay consists of two stages; a pre-treatment phase followed by a treatment phase.
50 μl of a compound solution was added to the cells (Pre-treatment). Immediately following, 50 μl of the test compound in a saline solution at pH 5.1 was added. […] Changes in wavelength measurements were made throughout the course of the experiment in 4 second intervals over a period of 3 minutes. Responses were measured as peak fluorescence ratio after test compound addition minus baseline fluorescence ratio prior to pre-treatment and were calculated using SoftMaxPro softwareData were expressed as percentage inhibition calculated using Excel as follows:

Row | Structure (SMILES) | % Inhibition @ 1 uM
1 | O=C(Nc1ccc2cn[nH]c2c1)c1ccc(-c2ncccc2Cl)c(F)c1 [Compound 1189] | +++ (compound exhibited 50-75% inhibition of calcium ion influx induced by capsaicin stimulation)
2 | CCCc1ccccc1NC(=O)c1ccc(-c2ncccc2Cl)c(OC)c1 [Compound 1212] | ++ (compound exhibited 25-50% inhibition of calcium ion influx induced by capsaicin stimulation)
3 | CN(C)c1cccc(NC(=O)c2ccc(-c3ncccc3Cl)cc2F)c1 [Compound 1086] | + (compound exhibited 0-25% inhibition of calcium ion influx induced by capsaicin stimulation)
4 | CC(C)(C)c1ccc(NC(=O)c2ccc(-c3ncccc3Cl)c(F)c2)cc1 [Compound 1142] | ++++ (compound exhibited 75% or greater inhibition of calcium ion influx induced by capsaicin stimulation)
5 | COc1cccc(NC(=O)c2ccc(-c3ncccc3Cl)c(F)c2)c1 [Compound 1136] | + (compound exhibited 0-25% inhibition of calcium ion influx induced by capsaicin stimulation)
6 | COc1cc(C(=O)Nc2ccc(Cl)c(C(F)(F)F)c2)ccc1-c1ncccc1Cl [Compound 1231] | + (compound exhibited 0-25% inhibition of calcium ion influx induced by capsaicin stimulation)
7 | O=C(Nc1cccc(OC(F)(F)F)c1)c1ccc(-c2ncccc2Cl)cc1 [Compound 1294] | + (compound exhibited 0-25% inhibition of calcium ion influx induced by capsaicin stimulation)
8 | O=C(Nc1cccc(Cl)c1)c1ccc(-c2ncccc2Cl)cc1 [Compound 1029] | + (compound exhibited 0-25% inhibition of calcium ion influx induced by capsaicin stimulation)
9 | CC(C)(C)c1ccc(NC(=O)c2ccc(-c3ncccc3Cl)cc2)cc1 [Compound 1041] | ++++ (compound exhibited 75% or greater inhibition of calcium ion influx induced by capsaicin stimulation)
10 | COc1ccc(NC(=O)c2ccc(-c3ncccc3Cl)cc2F)cn1 [Compound 1120] | + (compound exhibited 0-25% inhibition of calcium ion influx induced by capsaicin stimulation)
11 | Cc1cc(C)nc(NC(=O)c2ccc(-c3ncccc3Cl)c(F)c2)c1 [Compound 1156] | + (compound exhibited 0-25% inhibition of calcium ion influx induced by capsaicin stimulation)
12 | CCCCc1ccc(NC(=O)c2ccc(-c3ncccc3Cl)cc2)cc1 [Compound 1043] | ++ (compound exhibited 25-50% inhibition of calcium ion influx induced by capsaicin stimulation)
13 | O=C(Nc1ccncc1)c1ccc(-c2ncccc2Cl)cn1 [Compound 1330] | +++ (compound exhibited 50-75% inhibition of calcium ion influx induced by capsaicin stimulation)
14 | CCCOc1ccc(NC(=O)c2ccc(-c3ncccc3Cl)cc2)cc1 [Compound 1291] | + (compound exhibited 0-25% inhibition of calcium ion influx induced by capsaicin stimulation)
15 | O=C(Nc1ccc(C(F)(F)F)cn1)c1ccc(-c2ncccc2Cl)cc1 [Compound 1067] | ++ (compound exhibited 25-50% inhibition of calcium ion influx induced by capsaicin stimulation)
16 | COc1ccc(NC(=O)c2ccc(-c3ncccc3Cl)c(F)c2)cn1 [Compound 1170] | ++ (compound exhibited 25-50% inhibition of calcium ion influx induced by capsaicin stimulation)
17 | COc1ccc(NC(=O)c2ccc(-c3ncccc3Cl)cn2)cc1O [Compound 1355] | ++ (compound exhibited 25-50% inhibition of calcium ion influx induced by capsaicin stimulation)
18 | O=C(Nc1cccnc1)c1ccc(-c2ncccc2Cl)cc1 [Compound 1025] | ++++ (compound exhibited 75% or greater inhibition of calcium ion influx induced by capsaicin stimulation)
19 | O=C(Nc1ccc(F)cc1)c1ccc(-c2ncccc2Cl)cn1 [Compound 1308] | + (compound exhibited 0-25% inhibition of calcium ion influx induced by capsaicin stimulation)
20 | COc1ccc(NC(=O)c2ccc(-c3ncccc3Cl)cc2)cc1O [Compound 1288] | + (compound exhibited 0-25% inhibition of calcium ion influx induced by capsaicin stimulation)
21 | O=C(Nc1cc[nH]n1)c1ccc(-c2ncccc2Cl)c(F)c1 [Compound 1175] | + (compound exhibited 0-25% inhibition of calcium ion influx induced by capsaicin stimulation)
22 | CCn1c2ccccc2c2cc(NC(=O)c3ccc(-c4ncccc4Cl)cn3)ccc21 [Compound 1345] | ++++ (compound exhibited 75% or greater inhibition of calcium ion influx induced by capsaicin stimulation)
23 | O=C(Nc1ccc2ccccc2c1)c1ccc(-c2ncccc2Cl)cc1F [Compound 1126] | ++ (compound exhibited 25-50% inhibition of calcium ion influx induced by capsaicin stimulation)
24 | COc1cc(C(=O)Nc2cccc(C(=O)O)c2)ccc1-c1ncccc1Cl [Compound 1258] | + (compound exhibited 0-25% inhibition of calcium ion influx induced by capsaicin stimulation)
25 | O=C(Nc1ccc(C(F)(F)F)cn1)c1ccc(-c2ncccc2Cl)c(F)c1 [Compound 1166] | ++ (compound exhibited 25-50% inhibition of calcium ion influx induced by capsaicin stimulation)
26 | COc1cc(C(=O)Nc2cc(C)cc(C)n2)ccc1-c1ncccc1Cl [Compound 1234] | + (compound exhibited 0-25% inhibition of calcium ion influx induced by capsaicin stimulation)

Row | Structure (SMILES) | % Inhibition @ 1 uM
27 | COc1cc(C(=O)Nc2ccccc2C#N)ccc1-c1ncccc1Cl [Compound 1209] | + (compound exhibited 0-25% inhibition of calcium ion influx induced by capsaicin stimulation)
28 | CCC(C)(C)NC(=O)c1ccc(-c2ncccc2Cl)cc1 [Compound 1070] | + (compound exhibited 0-25% inhibition of calcium ion influx induced by capsaicin stimulation)
29 | CCCOc1ccc(NC(=O)c2ccc(-c3ncccc3Cl)cn2)cc1 [Compound 1358] | + (compound exhibited 0-25% inhibition of calcium ion influx induced by capsaicin stimulation)
30 | COc1ccc(NC(=O)c2ccc(-c3ncccc3Cl)c(OC)c2)cc1OC [Compound 1257] | + (compound exhibited 0-25% inhibition of calcium ion influx induced by capsaicin stimulation)
31 | CCOC(=O)c1cccc(NC(=O)c2ccc(-c3ncccc3Cl)cc2)c1 [Compound 1286] | + (compound exhibited 0-25% inhibition of calcium ion influx induced by capsaicin stimulation)
32 | O=C(Nc1ccc(F)c(F)c1)c1ccc(-c2ncccc2Cl)c(F)c1 [Compound 1195] | +++ (compound exhibited 50-75% inhibition of calcium ion influx induced by capsaicin stimulation)
33 | COc1cc(C(=O)NC(C)(C)C)ccc1-c1ncccc1Cl [Compound 1204] | + (compound exhibited 0-25% inhibition of calcium ion influx induced by capsaicin stimulation)
34 | COc1cc(NC(=O)c2ccc(-c3ncccc3Cl)cc2)cc(C(F)(F)F)c1 [Compound 1045] | ++ (compound exhibited 25-50% inhibition of calcium ion influx induced by capsaicin stimulation)
35 | N#Cc1ccccc1NC(=O)c1ccc(-c2ncccc2Cl)cn1 [Compound 1309] | + (compound exhibited 0-25% inhibition of calcium ion influx induced by capsaicin stimulation)
36 | O=C(Nc1ccc(Cl)c(C(F)(F)F)c1)c1ccc(-c2ncccc2Cl)cc1 [Compound 1037] | +++ (compound exhibited 50-75% inhibition of calcium ion influx induced by capsaicin stimulation)
37 | Cc1cc(C)nc(NC(=O)c2ccc(-c3ncccc3Cl)cc2)c1 [Compound 1054] | + (compound exhibited 0-25% inhibition of calcium ion influx induced by capsaicin stimulation)
38 | CCCc1ccccc1NC(=O)c1ccc(-c2ncccc2Cl)c(F)c1 [Compound 1135] | + (compound exhibited 0-25% inhibition of calcium ion influx induced by capsaicin stimulation)
39 | O=C(Nc1ccc2ncccc2c1)c1ccc(-c2ncccc2Cl)cn1 [Compound 1344] | + (compound exhibited 0-25% inhibition of calcium ion influx induced by capsaicin stimulation)
40 | COc1ccc(NC(=O)c2ccc(-c3ncccc3Cl)c(OC)c2)cc1Cl [Compound 1229] | +++ (compound exhibited 50-75% inhibition of calcium ion influx induced by capsaicin stimulation)
41 | O=C(Nc1ccc2cn[nH]c2c1)c1ccc(-c2ncccc2Cl)cn1 [Compound 1357] | ++++ (compound exhibited 75% or greater inhibition of calcium ion influx induced by capsaicin stimulation)
42 | O=C(Nc1cccc(Cl)c1Cl)c1ccc(-c2ncccc2Cl)c(F)c1 [Compound 1139] | ++++ (compound exhibited 75% or greater inhibition of calcium ion influx induced by capsaicin stimulation)
43 | O=C(Nc1ccc(N2CCOCC2)c(Cl)c1)c1ccc(-c2ncccc2Cl)cc1 [Compound 1301] | +++ (compound exhibited 50-75% inhibition of calcium ion influx induced by capsaicin stimulation)
44 | COc1cc(C(=O)Nc2cc(C)ccn2)ccc1-c1ncccc1Cl [Compound 1240] | ++++ (compound exhibited 75% or greater inhibition of calcium ion influx induced by capsaicin stimulation)
45 | O=C(Nc1ccc2ncccc2c1)c1ccc(-c2ncccc2Cl)cc1F [Compound 1124] | ++ (compound exhibited 25-50% inhibition of calcium ion influx induced by capsaicin stimulation)
46 | O=C(Nc1cccnc1Cl)c1ccc(-c2ncccc2Cl)cc1 [Compound 1047] | ++ (compound exhibited 25-50% inhibition of calcium ion influx induced by capsaicin stimulation)
47 | CC(C)(CO)NC(=O)c1ccc(-c2ncccc2Cl)cc1 [Compound 1058] | + (compound exhibited 0-25% inhibition of calcium ion influx induced by capsaicin stimulation)
48 | O=C(Nc1ccc(N2CCOCC2)cc1)c1ccc(-c2ncccc2Cl)cn1 [Compound 1334] | + (compound exhibited 0-25% inhibition of calcium ion influx induced by capsaicin stimulation)
49 | COc1cc(C(=O)Nc2ccccc2)ccc1-c1ncccc1Cl [Compound 1206] | + (compound exhibited 0-25% inhibition of calcium ion influx induced by capsaicin stimulation)
50 | COc1ccc(NC(=O)c2ccc(-c3ncccc3Cl)cc2)cc1 [Compound 1022] | ++ (compound exhibited 25-50% inhibition of calcium ion influx induced by capsaicin stimulation)
51 | COc1ccc(NC(=O)c2ccc(-c3ncccc3Cl)c(OC)c2)cc1 [Compound 1207] | + (compound exhibited 0-25% inhibition of calcium ion influx induced by capsaicin stimulation)
